Where a name gives a salt, the structure may show the parent alone.
Experiments:
[1] = molecular target: T1, glycine transporter-1 (GlyT-1) (Homo sapiens, UniProt P48067); test: [14C]glycine uptake assay in JAR cells endogenously expressing GlyT-1 (scintillation proximity); assay type: cell-based; conditions: JAR cells, [14C]glycine 5 μM, 3 hour incubation; read-out: GlyT-1 IC50
T1 construct: JAR cells (ATCC#HTB-144), which endogenously express GlyT-1; host or cells: JAR human choriocarcinoma cells
T1 sequence (P48067 1-706): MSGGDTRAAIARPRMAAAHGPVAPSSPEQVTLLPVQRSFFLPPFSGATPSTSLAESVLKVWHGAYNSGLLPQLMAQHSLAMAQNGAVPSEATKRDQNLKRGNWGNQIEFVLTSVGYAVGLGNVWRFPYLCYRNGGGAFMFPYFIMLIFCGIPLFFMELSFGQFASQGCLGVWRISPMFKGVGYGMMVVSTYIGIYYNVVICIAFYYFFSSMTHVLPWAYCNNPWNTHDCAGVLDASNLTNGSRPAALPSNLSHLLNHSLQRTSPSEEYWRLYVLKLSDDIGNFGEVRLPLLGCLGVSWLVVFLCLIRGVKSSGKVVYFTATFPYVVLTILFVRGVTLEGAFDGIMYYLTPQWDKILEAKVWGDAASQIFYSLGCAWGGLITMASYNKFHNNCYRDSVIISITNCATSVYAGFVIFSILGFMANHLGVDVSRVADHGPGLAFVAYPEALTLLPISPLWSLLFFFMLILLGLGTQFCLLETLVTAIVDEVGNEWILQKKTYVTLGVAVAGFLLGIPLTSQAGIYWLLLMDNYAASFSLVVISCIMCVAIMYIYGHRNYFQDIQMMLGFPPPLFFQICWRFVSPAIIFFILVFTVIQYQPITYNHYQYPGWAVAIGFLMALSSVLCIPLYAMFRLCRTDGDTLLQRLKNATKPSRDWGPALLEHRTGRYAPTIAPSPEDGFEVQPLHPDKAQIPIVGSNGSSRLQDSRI
How it was run: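 Human choriocarcinoma JAR cells (endogenous GlyT-1) attached overnight, then pre-incubated 10 min at room temperature with compound in pH 7.4 Hepes uptake buffer containing 5 mM alanine and 0.75% DMSO. Uptake of 5 μM [14C]glycine over 3 h at 37 °C read by scintillation proximity; IC50 from four-parameter fit of nine-point curves.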

[2] = molecular target: T2, glycine transporter-2 (GlyT-2) (Homo sapiens, UniProt Q9Y345); test: [14C]glycine uptake assay in HEK-GlyT-2 transfected cells; assay type: cell-based; conditions: HEK-GlyT-2 cells
T2 construct: expressed in transfected cells
T2 sequence (Q9Y345 1-797): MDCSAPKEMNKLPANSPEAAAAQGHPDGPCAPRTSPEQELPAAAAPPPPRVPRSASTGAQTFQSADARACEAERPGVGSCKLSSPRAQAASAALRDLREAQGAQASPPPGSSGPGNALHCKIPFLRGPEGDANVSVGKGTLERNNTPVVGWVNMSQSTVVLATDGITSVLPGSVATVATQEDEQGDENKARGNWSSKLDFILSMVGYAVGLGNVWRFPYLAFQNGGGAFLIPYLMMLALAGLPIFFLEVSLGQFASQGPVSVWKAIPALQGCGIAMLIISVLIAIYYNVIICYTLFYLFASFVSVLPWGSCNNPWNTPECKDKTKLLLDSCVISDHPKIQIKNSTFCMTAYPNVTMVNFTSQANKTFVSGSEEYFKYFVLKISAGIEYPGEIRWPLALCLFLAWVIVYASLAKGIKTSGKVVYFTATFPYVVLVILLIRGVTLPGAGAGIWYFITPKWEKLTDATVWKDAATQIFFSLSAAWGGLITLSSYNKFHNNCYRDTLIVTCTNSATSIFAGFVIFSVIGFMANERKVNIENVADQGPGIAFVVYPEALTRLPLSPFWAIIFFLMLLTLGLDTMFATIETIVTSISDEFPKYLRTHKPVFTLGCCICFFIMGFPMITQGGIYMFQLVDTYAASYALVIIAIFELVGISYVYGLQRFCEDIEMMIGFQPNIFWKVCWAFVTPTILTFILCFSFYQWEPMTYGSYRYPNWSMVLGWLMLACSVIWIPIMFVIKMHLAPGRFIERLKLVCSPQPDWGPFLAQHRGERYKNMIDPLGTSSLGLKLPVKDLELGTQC

Molecule | IC50 [1] | IC50 [2]
CCCS(=O)(=O)N1CCN(C2(CNC(=O)c3ccc(C)cc3)CCCCC2)CC1 [compound 25, 4-Methyl-N-((1-(4-(propylsulfonyl)piperazin-1-yl)cyclohexyl)methyl) benzamide Hydrochloride] | 767 nM | > 75000 nM
CCCS(=O)(=O)N1CCN(C2(CNC(=O)c3ccc(OC)cc3)CCCCC2)CC1 [compound 23, 4-Methoxy-N-((1-(4-(propylsulfonyl)piperazin-1-yl)cyclohexyl)methyl) benzamide Hydrochloride] | 1140 nM | 61900 nM
4-Chloro-N-((1-(4- (propylsulfonyl)piperazin- 1-yl)cycloheptyl)methyl) benzamide Hydrochloride [compound 58] | 265 nM | 53000 nM
CCCS(=O)(=O)N1CCN(C2(CNC(=O)c3ccc(Cl)c(Cl)c3)CCCCCC2)CC1 [compound 68, 3,4-Dichloro-N-((1-(4-(propylsulfonyl)piperazin-1-yl)cycloheptyl)methyl) benzamide Hydrochloride] | 174 nM | 3150 nM
CCCS(=O)(=O)N1CCN(C2(CNC(=O)c3ccc(-c4ccccc4)cc3)CCCCC2)CC1 [compound 38, N-((1-(4-(Propylsulfonyl)piperazin-1-yl)cyclohexyl)methyl) biphenyl-4-carboxamide Hydrochloride] | 172 nM | 1400 nM
Cn1cc(S(=O)(=O)N2CCN(C3(CNC(=O)c4ccc(F)cc4F)CCCC3)CC2)nn1 [compound 111, 2,4-Difluoro-N-((1-(4-(1-methyl-1H-1,2,3-triazol-4-ylsulfonyl)piperazin-1-yl)cyclopentyl)methyl) benzamide Hydrochloride] | 242 nM | > 75000 nM
Cc1cc(F)ccc1C(=O)NCC1(N2CCN(S(=O)(=O)CC3CC3)CC2)CCCCCC1 [compound 85, N-((1-(4-(Cyclopropylmethyl-sulfonyl)piperazin-1-yl)cycloheptyl)methyl)-4-fluoro-2-methylbenzamide Hydrochloride] | 182 nM | > 75000 nM
CCS(=O)(=O)N1CCN(C2(CNC(=O)c3c(Cl)cccc3Cl)CCCCCC2)CC1 [compound 88, 2,6-Dichloro-N-((1-(4-(ethylsulfonyl)piperazin-1-yl)cycloheptyl)methyl) benzamide Hydrochloride] | 195 nM | > 75000 nM
CCCS(=O)(=O)N1CCN(C2(CNC(=O)c3ccc(Cl)cc3OC)CCCCC2)CC1 [compound 45, 4-Chloro-2-methoxy-N-((1-(4-(propyl-sulfonyl)piperazin-1-yl)cyclohexyl)methyl) benzamide Hydrochloride] | 322 nM | > 75000 nM

Now those with a lower IC50 [1], led by results:

IC50 [1] | IC50 [2] | Molecule
21 nM | > 75000 nM | CCCS(=O)(=O)N1CCN(C2(CNC(=O)c3ccc(Cl)cc3C3CC3)CCC(F)(F)CC2)CC1 [compound 253, 4-Chloro-2-cyclopropyl-N-((4,4-difluoro-1-(4-(propylsulfonyl)piperazin-1-yl)cyclohexyl)methyl) benzamide Hydrochloride]
131 nM | > 75000 nM | CCCS(=O)(=O)N1CCN(C2(CNC(=O)c3c(OC)cc(F)cc3SC)CCCC2)CC1 [compound 74, 4-Fluoro-2-methoxy-6-(methylthio)-N-((1-(4-(propylsulfonyl)piperazin-1-yl)cyclopentyl)methyl) benzamide Hydrochloride]
2 nM | > 75000 nM | Cn1cc(S(=O)(=O)N2CCN(C3(CNC(=O)c4c(F)cccc4F)CCCCC3)CC2)nn1 [compound 114, 2,6-Difluoro-N-((1-(4-(1-methyl-1H-1,2,3-triazol-4-ylsulfonyl)piperazin-1-yl)cyclohexyl)methyl) benzamide Hydrochloride]
5 nM | > 75000 nM | Cn1cnc(S(=O)(=O)N2CCN(C3(CNC(=O)c4c(Cl)cccc4Cl)CCCCCC3)CC2)c1 [compound 106, 2,6-Dichloro-N-((1-(4-(1-methyl-1H-imidazol-4-ylsulfonyl)piperazin-1-yl)cycloheptyl)methyl) benzamide Hydrochloride]
23 nM | > 75000 nM | CCCS(=O)(=O)N1CCN(C2(CNC(=O)c3cc(F)c(Cl)cc3Cl)CCC(F)(F)CC2)CC1 [compound 263, 2,4-Dichloro-N-((4,4-difluoro-1-(4-(propylsulfonyl)piperazin-1-yl)cyclohexyl)methyl)-5-fluorobenzamide Hydrochloride]
56 nM | > 75000 nM | O=C(NCC1(N2CCN(S(=O)(=O)CC3CC3)CC2)CCCCC1)c1ccc(Cl)cc1Cl [compound 84, 2,4-Dichloro-N-((1-(4-(cyclopropylmethyl-sulfonyl)piperazin-1-yl)cyclohexyl)methyl) benzamide Hydrochloride]
13 nM | > 75000 nM | Cc1ccc(C(=O)NCC2(N3CCN(S(=O)(=O)c4cn(C)cn4)CC3)CCCCC2)c(C)c1 [compound 94, 2,4-Dimethyl-N-((1-(4-(1-methyl-1H-imidazol-4-ylsulfonyl)piperazin-1-yl)cyclohexyl)methyl) benzamide Hydrochloride]
2 nM | > 75000 nM | Cn1cnc(S(=O)(=O)N2CCN(C3(CNC(=O)c4c(N)cccc4Cl)CCCCC3)CC2)c1 [compound 99, 2-Amino-6-chloro-N-((1-(4-(1-methyl-1H-imidazol-4-ylsulfonyl)piperazin-1-yl)cyclohexyl)methyl) benzamide Hydrochloride]
30 nM | > 75000 nM | Cn1cnc(S(=O)(=O)N2CCN(C3(CNC(=O)c4ccc(F)cc4F)CCCCC3)CC2)c1 [compound 100, 2,4-Difluoro-N-((1-(4-(1-methyl-1H-imidazol-4-ylsulfonyl)piperazin-1-yl)cyclohexyl)methyl) benzamide Hydrochloride]
9 nM | > 75000 nM | Cn1cnc(S(=O)(=O)N2CCN(C3(CNC(=O)c4ccccc4Cl)CCC(F)(F)CC3)CC2)c1 [compound 160, 2-Chloro-N-((4,4-difluoro-1-(4-(1-methyl-1H-imidazol-4-ylsulfonyl)piperazin-1-yl)cyclohexyl)methyl) benzamide Hydrochloride]
39 nM | > 75000 nM | CCCS(=O)(=O)N1CCN(C2(CNC(=O)c3c(C)cc(C)cc3C)CCCCC2)CC1 [compound 36, 2,4,6-Trimethyl-N-((1-(4-(propylsulfonyl)piperazin-1-yl)cyclohexyl)methyl) benzamide Hydrochloride]
50 nM | > 75000 nM | COc1cc(F)cc(SC)c1C(=O)NCC1(N2CCN(S(=O)(=O)CC3CC3)CC2)CCCCC1 [compound 82, N-((1-(4-(Cyclopropylmethyl-sulfonyl)piperazin-1-yl)cyclohexyl)methyl)-4-fluoro-2-methoxy-6-(methylthio)benzamide Hydrochloride]
1 nM | > 75000 nM | Cn1cc(S(=O)(=O)N2CCN(C3(CNC(=O)c4ccc(F)cc4C(F)(F)F)CCC(F)(F)CC3)CC2)nn1 [compound 233, N-((4,4-Difluoro-1-(4-(1-methyl-1H-1,2,3-triazol-4-ylsulfonyl)piperazin-1-yl)cyclohexyl)methyl)-4-fluoro-2-(trifluoromethyl)benzamide Hydrochloride]
61 nM | > 75000 nM | O=C(NCC1(N2CCN(S(=O)(=O)CC3CC3)CC2)CCCCC1)c1c(F)cccc1F [compound 81, N-((1-(4-(Cyclopropylmethyl-sulfonyl)piperazin-1-yl)cyclohexyl)methyl)-2,6-difluorobenzamide Hydrochloride]
